Here are results for 13 compounds from ChEMBL document CHEMBL1201862, “PubChem BioAssay data set” (2004).

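Dose response: 5 concentrations. Exposure: 48 h. Format: 96-well plates. Endpoint: linear interpolation; highest concentration if not reached. Abbreviation: GI50, concentration required for 50% inhibition of growth.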 Calls of active or inactive are those of the source. Rule as the data show it: active = GI50 up to about 1.1 µM and inactive = higher.

Among the test systems are ACHN; EKVX; IGROV-1; K562; M14; NCI-H226; NCI-H460; OVCAR-3; OVCAR-8; RPMI-8226; SK-MEL-28; SK-OV-3; SNB-19; UACC-62; HCT-116; HCT-15; SK-MEL-2; UACC-257.
Holding throughout (experiment): NCI anticancer screen, dose series, 48 h

Take `O=C1C(C2=[N+]([O-])c3ccccc3C2=O)=[N+]([O-])c2ccccc21`: the GI50 is 24.8 µM (inactive) in the assay on ACHN; 16.6 µM (inactive) in the assay on EKVX; 32.1 µM (inactive) in the assay with IGROV-1; 19.7 µM (inactive) with K562; 16.6 µM (inactive) with M14; 25.5 µM (inactive) with NCI-H226. Also, the GI50 in the assay with NCI-H460 is 23.1 µM (inactive); with OVCAR-3 it was 16.3 µM (inactive); in the assay with OVCAR-8, 24.7 µM (inactive); with RPMI-8226, 20.2 µM (inactive); in the assay on SK-MEL-28, 42.9 µM (inactive); in the assay on SK-OV-3 it was 53.2 µM (inactive). Further, the GI50 is 46.7 µM (inactive) in the assay with SNB-19 and > 10 µM (inactive) with UACC-62.
For `COc1ccccc1-n1c(C)nc2ccccc2c1=O`, the GI50 was > 100 µM (inactive) with ACHN; > 100 µM (inactive) in the assay on EKVX; > 100 µM (inactive) with HCT-116; greater than 100 µM in the assay with HCT-15; > 100 µM (inactive) in the assay with IGROV-1; > 100 µM (inactive) in the assay on K562. Also, the GI50 with M14, in the assay on NCI-H226, in the assay on NCI-H460, with OVCAR-3, with OVCAR-8 and with SK-MEL-28 was > 100 µM (inactive) each time. Besides, the GI50 in the assay with SK-MEL-2, with SK-OV-3, with SNB-19, with UACC-257 and with UACC-62 was > 100 µM (inactive) each time.
`Cc1cc(O)nc(NNC(C#N)c2ccco2)n1` (centres undefined): the GI50 in the assay with ACHN is > 100 µM (inactive); in the assay on HCT-116 it was > 100 µM (inactive); in the assay with HCT-15, greater than 100 µM; in the assay with IGROV-1, > 100 µM (inactive); with K562 it was > 100 µM (inactive); in the assay with M14 it was > 100 µM (inactive). The GI50 in the assay with NCI-H226, with NCI-H460, with OVCAR-3, in the assay on OVCAR-8, with RPMI-8226 and in the assay on SK-MEL-28 was > 100 µM (inactive) throughout. The GI50 in the assay on SK-MEL-2, in the assay on SK-OV-3, with UACC-257 and in the assay with UACC-62 was > 100 µM (inactive) in each case.
Take `COc1cc(/C=C2\C(=O)N(C(=O)Cc3ccccc3)N=C2C)ccc1O`: the GI50 is > 100 µM (inactive) in the assay on ACHN; > 100 µM (inactive) with EKVX; > 100 µM (inactive) with HCT-116; greater than 100 µM in the assay with HCT-15; > 100 µM (inactive) in the assay with K562; > 100 µM (inactive) with M14. Also, the GI50 in the assay on NCI-H226, in the assay on OVCAR-3, in the assay on OVCAR-8, with RPMI-8226, with SK-MEL-28 and in the assay with SK-MEL-2 was > 100 µM (inactive) throughout. For the same compound, the GI50 with SNB-19 and in the assay with UACC-257 was > 100 µM (inactive) each time.
As for `CC(C)(C)c1cc([Si](C)(C)C)c(C#N)c([Si](C)(C)C)c1`, the GI50 in the assay on ACHN is 87.3 µM (inactive); in the assay on EKVX, > 100 µM (inactive); in the assay on HCT-116, 54.8 µM (inactive); with HCT-15, greater than 100 µM; with IGROV-1, > 100 µM (inactive); in the assay on K562, > 100 µM (inactive). Besides, the GI50 with M14 was > 100 µM (inactive); in the assay on NCI-H226, 87.9 µM (inactive); in the assay on NCI-H460 it was > 100 µM (inactive); with OVCAR-3 it was > 100 µM (inactive); in the assay with OVCAR-8, > 100 µM (inactive); in the assay on SK-MEL-28, > 100 µM (inactive). Besides, the GI50 in the assay with SK-MEL-2 is > 100 µM (inactive); with SK-OV-3, > 100 µM (inactive); in the assay with SNB-19, 62.1 µM (inactive); in the assay on UACC-257, 34.3 µM (inactive); with UACC-62, 60.5 µM (inactive).
Regarding `Cc1cc(O)nc(NNC(C#N)c2cccc([N+](=O)[O-])c2)n1` (centres undefined), the GI50 was > 100 µM (inactive) with ACHN; > 100 µM (inactive) in the assay on HCT-116; greater than 100 µM in the assay on HCT-15; > 100 µM (inactive) in the assay on IGROV-1; > 100 µM (inactive) in the assay on K562; > 100 µM (inactive) in the assay with M14. The GI50 in the assay on NCI-H226, in the assay with NCI-H460, in the assay on OVCAR-3, in the assay with OVCAR-8, with RPMI-8226 and in the assay with SK-MEL-28 was > 100 µM (inactive) throughout. Moreover, the GI50 in the assay with SK-MEL-2, in the assay on SK-OV-3, with UACC-257 and in the assay on UACC-62 was > 100 µM (inactive) in each case.
Turning to `CC1=Nc2ccccc2SC(c2c(Cl)cccc2Cl)C1` (centres undefined), the GI50 was 1.71 µM (inactive) in the assay with ACHN; 2.12 µM (inactive) in the assay on EKVX; 0.225 µM (active) in the assay on HCT-116; 1.19 µM in the assay on HCT-15; 1.77 µM (inactive) with IGROV-1; 0.327 µM (active) with K562. Moreover, the GI50 with M14 is 1.52 µM (inactive); in the assay on NCI-H226, 1.51 µM (inactive); in the assay with NCI-H460, 1.14 µM (inactive); in the assay with OVCAR-3 it was 0.281 µM (active); in the assay on OVCAR-8, 0.229 µM (active); in the assay with RPMI-8226 it was 0.314 µM (active). Also, the GI50 is 1.36 µM (inactive) in the assay with SK-MEL-28; 2.45 µM (inactive) with SK-OV-3; 1.38 µM (inactive) with SNB-19; 1.57 µM (inactive) in the assay with UACC-257; 1.25 µM (inactive) with UACC-62.
Consider `COc1ccc(/C(=N\NC(=O)C(N)=O)C(c2ccc(OC)cc2)C2(O)C(=O)Nc3c(Cl)cccc32)cc1` (centres undefined), for which the GI50 in the assay on ACHN, in the assay with EKVX, in the assay on HCT-116, with IGROV-1, with M14 and in the assay with NCI-H226 was > 100 µM (inactive) throughout. The GI50 in the assay on NCI-H460, in the assay on OVCAR-3, with OVCAR-8, in the assay on RPMI-8226, in the assay with SK-MEL-28 and in the assay on SK-MEL-2 was > 100 µM (inactive) in each case. Also, the GI50 with SNB-19, in the assay with UACC-257 and in the assay with UACC-62 was > 100 µM (inactive) in each case.
As for `COc1cc2c(c(O)c1C)C(=O)CC(c1ccccc1)O2` (centres undefined), the GI50 in the assay on ACHN was 43.7 µM (inactive); with EKVX, 89.3 µM (inactive); in the assay with HCT-116, 31.7 µM (inactive); in the assay on HCT-15 it was 66.4 µM; in the assay with IGROV-1, 61.9 µM (inactive); with K562, 50.2 µM (inactive). The GI50 was > 10 µM (inactive) with M14; 18.4 µM (inactive) in the assay on NCI-H226; > 10 µM (inactive) with NCI-H460; 48.1 µM (inactive) with OVCAR-3; > 100 µM (inactive) in the assay on OVCAR-8; > 100 µM (inactive) in the assay with SK-MEL-28. The GI50 is 24.9 µM (inactive) in the assay on SK-MEL-2, 36.2 µM (inactive) in the assay with SK-OV-3, 38.5 µM (inactive) with UACC-257 and 47.9 µM (inactive) in the assay with UACC-62.
As to `COc1cc(Nc2nc3ccccc3nc2-c2cccs2)cc(OC)c1OC`, the GI50 in the assay with ACHN is 16.4 µM (inactive); with EKVX, 89.5 µM (inactive); in the assay with HCT-116, 28.1 µM (inactive); in the assay on HCT-15, 19 µM; in the assay with NCI-H226 it was 66.7 µM (inactive); in the assay on NCI-H460 it was 33.7 µM (inactive). Moreover, the GI50 was 43.8 µM (inactive) in the assay with OVCAR-3; > 10 µM (inactive) in the assay with OVCAR-8; 26.9 µM (inactive) with RPMI-8226; 52.1 µM (inactive) in the assay on SK-MEL-28; 85.3 µM (inactive) in the assay on SK-MEL-2; 40.2 µM (inactive) in the assay on SK-OV-3. The GI50 is 56.9 µM (inactive) in the assay with SNB-19, 28.8 µM (inactive) with UACC-257 and 36.2 µM (inactive) with UACC-62.
For the compound `CC(=O)Oc1cc(OC(C)=O)c(OC(C)=O)c2c1CC1C(=O)C3(CCc4ccccc43)C(=O)C1C2` (centres undefined), the GI50 in the assay with ACHN is 13.4 µM (inactive); in the assay on EKVX it was 20 µM (inactive); in the assay on HCT-15, 18.1 µM; in the assay on IGROV-1 it was 19.8 µM (inactive); in the assay on K562 it was 9.2 µM (inactive); in the assay with M14, > 100 µM (inactive). The GI50 with NCI-H460 is 13.9 µM (inactive); in the assay with OVCAR-3, 4.82 µM (inactive); with OVCAR-8 it was 14.2 µM (inactive); in the assay on RPMI-8226, 0.555 µM (active); in the assay with SK-MEL-28, 18.2 µM (inactive); in the assay on SK-OV-3 it was 32.1 µM (inactive). Moreover, the GI50 with UACC-62 was 14.5 µM (inactive).
In the case of `CN(C(=O)c1ccc([N+](=O)[O-])cc1)c1ccccc1`, the GI50 with ACHN was > 100 µM (inactive); with EKVX, > 100 µM (inactive); with HCT-116, > 100 µM (inactive); in the assay on HCT-15, greater than 100 µM; with IGROV-1 it was > 100 µM (inactive); with K562, > 10 µM (inactive). In addition, the GI50 with M14, in the assay with NCI-H226, in the assay with NCI-H460, in the assay with OVCAR-3, in the assay on OVCAR-8 and in the assay with RPMI-8226 was > 100 µM (inactive) in each case. Further, the GI50 in the assay on SK-MEL-28 is > 100 µM (inactive); with SK-OV-3, > 100 µM (inactive); in the assay with SNB-19 it was > 100 µM (inactive); with UACC-257, > 100 µM (inactive); in the assay with UACC-62, > 10 µM (inactive).
Take `Cc1ccc(Cn2c(C)nc3c2C(=O)c2ccccc2C3=O)cc1`: the GI50 was 6.22 µM (inactive) in the assay with ACHN; 18.2 µM (inactive) in the assay with EKVX; 0.755 µM (active) in the assay with HCT-116; 0.619 µM in the assay with HCT-15; 5.45 µM (inactive) in the assay with IGROV-1; 0.834 µM (active) with K562. The GI50 in the assay on M14 is 27.7 µM (inactive); in the assay with NCI-H226, 6.9 µM (inactive); with NCI-H460, 0.387 µM (active); in the assay with OVCAR-3 it was 10.6 µM (inactive); with OVCAR-8 it was 3.05 µM (inactive); in the assay on SK-MEL-28, 23.5 µM (inactive). Further, the GI50 in the assay with SK-MEL-2 was 15.3 µM (inactive); in the assay on SK-OV-3, 13.8 µM (inactive); in the assay on SNB-19 it was 11.6 µM (inactive); with UACC-257 it was 11.7 µM (inactive); in the assay on UACC-62, 1.12 µM (inactive).
